Assay results as given in PMC12612973, “Inhibition of Human Amylin Aggregation: In Silico and In Vitro Studies” (ACS Omega, 2025).
Values joined by “and” are separate entries in the source; they are usually repeats but may differ in a detail not shown here. Identical values can stand only once.

Legend:
human amylin (hIAPP) [1] = target: T1, human amylin (hIAPP) (Homo sapiens, UniProt P10997); assay: Thioflavin T (ThT) fluorescence assay of amylin aggregation; type: biochemical; settings: for ThT inhibition % (mean ± SEM): compound 10 μM, amylin 15 μM, 36 h incubation, 3 trials; for inhibition at 10 µM: read-out: ThT inhibition % (mean ± SEM), compound 10 μM, amylin 15 μM, 36 h incubation, 3 trials
T1 construct: purchased Bachem USA
T1 sequence (P10997 34-70 limits assumed): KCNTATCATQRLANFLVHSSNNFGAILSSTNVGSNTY
Procedure: A stock solution of amylin (1 mM) (purchased from Bachem USA), peptide sequence: […] amide (with disulfide bond between Cys2 and Cys7), was prepared in 100% hexafluoroisopropyl alcohol (HFIP) (purchased from Sigma-Aldrich) and stored at −20 °C. , Aliquots of amylin peptide were filtered through a 0.22 μm filter from the stock solution and freeze-dried. For kinetic experiments, 15 μM of amylin was prepared in 50 mM Tris-HCl buffer (pH 7.4), as investigated in previous studies by Chaari et al., , Samples of amylin were prepared in the presence or absence of inhibitors. Each compound was dissolved in DMSO and further diluted with the buffer used to solubilize the amylin. The final mixture contained 15 μM amylin, 10 μM of the test compound, 2% DMSO or 15 μM amylin, and 2% DMSO without the compound (negative control). Also 15 μM amylin, 10 μM of oleuropein aglycone and 2% DMSO was used as a positive control. The prepared solutions were incubated under physiological conditions (pH 7.4 and 37 °C) for amylin aggregation. Samples were incubated for 36 h to test for amylin aggregation, and measurements were conducted at different time points.
Amylin aggregation was monitored by characteristic changes in Thioflavin T (ThT) fluorescence intensity. A ThT stock solution (15 μM) was prepared in deionized water at pH 7.4. The amylin samples were mixed with the ThT solution and allowed to incubate. ThT fluorescence was measured using the PerkinElmer model LS 55 fluorescence spectrophotometer (PerkinElmer, USA), with an excitation wavelength of 440 nm and an emission wavelength of 480 nm. ,− The emission and excitation slits were set to 5 nm, and a 1 cm cuvette was used for all experiments. Nonspecific background fluorescence was subtracted from the samples using appropriate blanks in the absence of proteins. Each experiment was performed in triplicate.

human amylin (hIAPP) [2] = target: T1, human amylin (hIAPP); assay: Kinetic analysis of amylin aggregation (ThT, two-step autocatalytic aggregation model); type: biochemical; settings: mean ± S.D.; for t 0 (time point when the aggregation starts): 10% of highest ThT fluorescence; for t 1/2 (aggregation halftime): 50% of highest ThT fluorescence; for t 1 (aggregation endpoint): 90% of highest ThT fluorescence; for k / k e (elongation constant) / k n (nucleation constant) / ρ (ratio of kn to k): ThT data, autocatalytic aggregation model
Procedure: Kinetic analysis was performed according to the model of autocatalytic aggregation. According to Sabaté et al., aggregation is a two-step process, comprising nucleation (described by the k n constant) and fibrillation phases (represented by the k e constant). Two constants (k n and k e) are calculated using the eq : 5 f=ρ{e^[(1+ρ)kt]−1}/{1+ρe^[(1+ρ)kt]} where k = k e a (where a represents the initial concentration of the aggregating peptide), f stands for a fraction of the fibrillar form in the system, and ρ denotes the dimensionless ratio of k n to k. The parameters k and ρ were calculated first, then k n and k e.
Data were normalized as a fraction of the highest fluorescence from the three trials and fitted into the model of autocatalytic aggregation. The same procedure was repeated for the remaining trials. The second calculation aimed to find the time parameters of the aggregation process: t 0 (time point when the aggregation starts), t 1/2 (aggregation halftime), and t 1 (aggregation endpoint). t 0, t 1/2, and t 1 were calculated as 10%, 50%, and 90% of the highest fluorescence measurements from the three trials, respectively. All calculations were performed using GraphPad Prism 9.5.1, Statistica 13.3.721.1, and Microsoft Excel 2304.

Pancreatic INS-1E cells = assay: MTT cytotoxicity assay of amylin aggregates aged with or without inhibitors; type: cell-based; settings: for effect on INS-1E cell viability in presence of amylin: INS-1E cells cultured with the MTDLs
Procedure: In this study, we utilized Pancreatic INS-1E cells (Department of Cell Physiology and Metabolism, University Medical Center, Switzerland) due to their close physiological similarity to native β-cells, making them highly relevant to our experimental objectives. Pancreatic INS-1E cells were grown in RPMI 1640 medium, supplemented with 2 mM glutamine, 5% fetal calf serum, 10 mM HEPES (pH 7.4), 1 mM sodium pyruvate, 50 μM 2-mercaptoethanol, 100 units/mL penicillin, and 0.1 mg/mL streptomycin. The culturing environment was maintained at 37 °C, 5% CO2, pH 7.4.
The toxicity of human amylin aggregates in the presence or absence of different compounds in the presence of 2% DMSO was assessed by the 3-(4,5-dimethylthiazol-2-yl)-2,5-diphenyltetrazolium bromide (MTT) reduction assay. The cells were cultured and then seeded into 96-well plates and grown for 24 h prior to exposure to different intermediates of amylin or a mixture of amylin with the MTDLs. The final amylin concentration within the culture medium was 5 μM. Cell viability was expressed as the percentage of MTT reduction, using cells treated with the same buffer volume as a reference (100% MTT reduction). The values (averages ± S.D.) were obtained from three independent experiments.

human amylin (hIAPP) [3] = target: T1, human amylin (hIAPP); assay: Thioflavin T (ThT) fluorescence assay of amylin aggregation; type: biochemical; settings: read-out: IC50 of amylin aggregation inhibition

CC(C)(C)c1cccc(CNCC(O)CNCCC(c2ccccc2)c2ccccc2)c1 (centres unmarked) [Compound 18]
ThT inhibition % (mean ± SEM) (human amylin (hIAPP) [1]): 91.5 ± 0.4%
inhibition at 10 µM (human amylin (hIAPP) [1]): > 88%
t 0 (time point when the aggregation starts) (human amylin (hIAPP) [2]): 9.31 ± 0.72 h
t 1/2 (aggregation halftime) (human amylin (hIAPP) [2]): 19.02 ± 0.57 h
t 1 (aggregation endpoint) (human amylin (hIAPP) [2]): 29.29 ± 0.36 h
k (human amylin (hIAPP) [2]): 0.2087 ± 0.0084 h^–1
k e (elongation constant) (human amylin (hIAPP) [2]): 13913 M^–1h^–1 and 13913 ± 560 M^–1h^–1
k n (nucleation constant) (human amylin (hIAPP) [2]): 0.004 h^–1 and 0.0039 ± 0.0009 h^–1
ρ (ratio of kn to k) (human amylin (hIAPP) [2]): 0.0186 ± 0.0051
cell viability difference versus the sample with amylin fibrils (Pancreatic INS-1E cells; INS-1E cells 24 h, amylin aggregates aged 36 h with 2.92 μM compound 18 or 3.31 μM compound 21): approximately 30 % points
effect on INS-1E cell viability in presence of amylin (Pancreatic INS-1E cells): retained cell viability
IC50 (human amylin (hIAPP) [3]): 3040 nM

CC(C)(C)c1cccc(CNCC(O)CCNCCC(c2ccccc2)c2ccccc2)c1 (centres unmarked) [Compound 22]
ThT inhibition % (mean ± SEM) (human amylin (hIAPP) [1]): 89.3 ± 0.3%
inhibition at 10 µM (human amylin (hIAPP) [1]): > 88%
t 0 (time point when the aggregation starts) (human amylin (hIAPP) [2]): 4.36 ± 0.16 h
t 1/2 (aggregation halftime) (human amylin (hIAPP) [2]): 11.87 ± 1.02 h
t 1 (aggregation endpoint) (human amylin (hIAPP) [2]): 20.69 ± 2.27 h
k (human amylin (hIAPP) [2]): 0.2326 ± 0.0366 h^–1
k e (elongation constant) (human amylin (hIAPP) [2]): 15505 M^–1h^–1 and 15505 ± 2437 M^–1h^–1
k n (nucleation constant) (human amylin (hIAPP) [2]): 0.014 h^–1 and 0.0142 ± 0.0006 h^–1
ρ (ratio of kn to k) (human amylin (hIAPP) [2]): 0.0624 ± 0.0126
cell viability difference versus oleuropein aglycone (Pancreatic INS-1E cells; INS-1E cells 24 h, amylin aggregates aged 36 h with compound): around 8 % points
cell viability (MTT reduction) (Pancreatic INS-1E cells; INS-1E cells 24 h with amylin aggregates aged 36 h in presence of compound (2.61 μM of compound 22)): ~93%
effect on INS-1E cell viability in presence of amylin (Pancreatic INS-1E cells): retained cell viability
cell viability higher than that of the control (Pancreatic INS-1E cells; cytotoxicity assay, discussion statement): ~40%
IC50 (human amylin (hIAPP) [3]): 2710 nM
